The text below walks through data of patent US5723616A, “Process for the preparation of a growth hormone secretagogue” (priority 1996, dated 1998).

Values after ≈ are worked out from the molar mass of the structure shown. Like-named read-outs stand apart in the source and are kept apart here.

Data set [1] in a line: solubility of the sulfonamide in various mixtures of toluene and n-PrOH, determined by HPLC assay. As to conditions: organic solvent or mixture, read-out: solubility of 1. It is filed as physicochemical. As for the experimental part:
The temperature of both the head and pot rose from 94° C. to 98° C. during the solvent switch. Toluene and n-PrOH form an azeotrope boiling at 97.2° C. composed of 47.5% toluene and 52.5% n-PrOH. The mixture was allowed to cool gradually to 20° C. over 3h and aged for 12 h. […] The solubility of the sulfonamide in various mixtures of toluene and n-PrOH has been determined by HPLC assay: […]

Data set [2] is described as follows: hygroscopicity observed at filtration of the wet crystals. It is filed as physicochemical. As to conditions: wet crystals during filtration (N2 essential). How it is done:
The volume of the solution of 15 from the previous step was adjusted to 60 L with ethyl acetate and EtOH (4.8 L) was added. The MsOH (316 mL) was added in 3 L of EtOAc at 45° C. To the deep red homogeneous solution was added 496 g of the title compound Form I seed (10% seed based on the weight of the free amine was employed). The temperature rose to ca. 48° C. and the reaction was aged at 52° C. for 1.5 hours. Analysis indicated complete conversion to the title compound (Form I). (At less than 10% seed longer age (>3 hours) was required). The slurry was allowed to cool to 20° C. overnight and was filtered in a centrifuge under N2. The cake was washed with 20 L of 8% EtOH in EtOAc. […] The batch was dried at 35° C. under vacuum to afford 2.7 Kg (56% overall yield) of the title compound (Form I) (99.9 A % purity; <0.1% enantiomer).

By solubility is commonly meant the dissolved amount per volume that the medium holds. With `CS(=O)(=O)N1CC2(CCN(C(=O)OCc3ccccc3)CC2)c2ccccc21` [Compound 1, CBZ-Spiroindoline-methanesulfonamide], the solubility in data set [1] (5% toluene in n-proh) is 3020 µg/mL (≈ 7.54 mM); in data set [1] (10% toluene in n-proh), 4230 µg/mL (≈ 10.6 mM); in data set [1] (20% toluene in n-proh), 7510 µg/mL (≈ 18.8 mM); in data set [1] (25% toluene in n-proh) it was 10300 µg/mL (≈ 25.7 mM); in data set [1] (0% toluene in n-PrOH) it was 2360 µg/mL (≈ 5.89 mM).
Consider `CC(C)(N)C(=O)N[C@H](COCc1ccccc1)C(=O)N1CCC2(CC1)CN(S(C)(=O)=O)c1ccccc12` [Form I, N-[1(R)-[(1,2-dihydro-1-methanesulfonyl-spiro[3H-indole-3,4'-piperdin]-1'-yl)carbonyl]-2-(phenylmethyl-oxy)ethyl]-2-amino-2-methylpropanamide methanesulfonate], for which the “hygroscopicity of the wet crystals” value in data set [2] is reported as “very hygroscopic”.
